In ChEMBL document CHEMBL1201862, “PubChem BioAssay data set” (2004):
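Each compound was tested at five concentrations against cells in 96-well plates for 48 hours. The concentration for 50% growth inhibition is given as GI50.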 The source made the active and inactive calls. Rule as the data show it: active = GI50 up to about 1.1 µM and inactive = higher.

Legend:
Assay in all cases: NCI tumour cell line growth inhibition, 48 h
786-0 = system: 786-0
A498 = system: A498
ACHN = system: ACHN
CAKI-1 = system: CAKI-1
CCRF-CEM = system: CCRF-CEM
COLO 205 = system: COLO 205
DLD-1 = system: DLD-1
DMS-114 = system: DMS-114
DMS-273 = system: DMS-273
HCC 2998 = system: HCC 2998
HCT-116 = system: HCT-116
HCT-15 = system: HCT-15
HOP-18 = system: HOP-18
HOP-62 = system: HOP-62
HOP-92 = system: HOP-92
HT-29 = system: HT-29
IGROV-1 = system: IGROV-1
K562 = system: K562
KM-20L2 = system: KM-20L2
LOX IMVI = system: LOX IMVI
LXFL 529 = system: LXFL 529
M14 = system: M14
M19-MEL = system: M19-MEL
MOLT-4 = system: MOLT-4
NCI-H226 = system: NCI-H226
NCI-H23 = system: NCI-H23
NCI-H460 = system: NCI-H460
NCI-H522 = system: NCI-H522
OVCAR-3 = system: OVCAR-3
OVCAR-4 = system: OVCAR-4
OVCAR-5 = system: OVCAR-5
OVCAR-8 = system: OVCAR-8
RPMI-8226 = system: RPMI-8226
RXF 393 = system: RXF 393
SF-268 = system: SF-268
SF-295 = system: SF-295
SF-539 = system: SF-539
SK-MEL-28 = system: SK-MEL-28
SK-MEL-2 = system: SK-MEL-2
SK-MEL-5 = system: SK-MEL-5
SK-OV-3 = system: SK-OV-3
SN12C = system: SN12C
SNB-75 = system: SNB-75
SNB-78 = system: SNB-78
SR = system: SR
SW-620 = system: SW-620
TK-10 = system: TK-10
U-251 = system: U-251
UACC-257 = system: UACC-257
UACC-62 = system: UACC-62
UO-31 = system: UO-31
A549 = system: A549
HL-60 = system: HL-60
KM12 = system: KM12
SNB-19 = system: SNB-19
XF498 = system: XF498

## Cc1ccc([S+]([O-])C(C)C(Cl)c2ccccc2)cc1 (stereo not drawn)
786-0
  GI50: > 100 µM (inactive)
A498
  GI50: > 100 µM (inactive)
ACHN
  GI50: > 100 µM (inactive)
CAKI-1
  GI50: > 100 µM (inactive)
CCRF-CEM
  GI50: 47.6 µM (inactive)
COLO 205
  GI50: 30.7 µM (inactive)
DLD-1
  GI50: > 100 µM (inactive)
DMS-114
  GI50: 28.2 µM (inactive)
DMS-273
  GI50: > 100 µM (inactive)
HCC 2998
  GI50: > 100 µM (inactive)
HCT-116
  GI50: > 100 µM (inactive)
HCT-15
  GI50: > 100 µM
HOP-18
  GI50: > 100 µM (inactive)
HOP-62
  GI50: > 100 µM (inactive)
HOP-92
  GI50: > 100 µM (inactive)
HT-29
  GI50: 38.8 µM (inactive)
IGROV-1
  GI50: 60.4 µM (inactive)
K562
  GI50: 45.8 µM (inactive)
KM-20L2
  GI50: > 100 µM (inactive)
LOX IMVI
  GI50: > 100 µM (inactive)
LXFL 529
  GI50: 81.1 µM (inactive)
M14
  GI50: > 100 µM (inactive)
M19-MEL
  GI50: 54.3 µM (inactive)
MOLT-4
  GI50: 55.7 µM (inactive)
NCI-H226
  GI50: > 100 µM (inactive)
NCI-H23
  GI50: 72.3 µM (inactive)
NCI-H460
  GI50: > 100 µM (inactive)
NCI-H522
  GI50: 28.9 µM (inactive)
OVCAR-3
  GI50: 53.7 µM (inactive)
OVCAR-4
  GI50: > 100 µM (inactive)
OVCAR-5
  GI50: > 100 µM (inactive)
OVCAR-8
  GI50: 78 µM (inactive)
RPMI-8226
  GI50: 35.9 µM (inactive)
RXF 393
  GI50: 53.7 µM (inactive)
SF-268
  GI50: > 100 µM (inactive)
SF-295
  GI50: 86.7 µM (inactive)
SF-539
  GI50: > 100 µM (inactive)
SK-MEL-28
  GI50: > 100 µM (inactive)
SK-MEL-2
  GI50: > 100 µM (inactive)
SK-MEL-5
  GI50: 43.6 µM (inactive)
SK-OV-3
  GI50: > 100 µM (inactive)
SN12C
  GI50: > 100 µM (inactive)
SNB-75
  GI50: 48.6 µM (inactive)
SNB-78
  GI50: > 100 µM (inactive)
SR
  GI50: 99.3 µM (inactive)
SW-620
  GI50: > 100 µM (inactive)
TK-10
  GI50: > 100 µM (inactive)
U-251
  GI50: 35.6 µM (inactive)
UACC-257
  GI50: 34.7 µM (inactive)
UACC-62
  GI50: 80 µM (inactive)
UO-31
  GI50: > 100 µM (inactive)

## N#CC12CCC1C1CCCCC12N1CCSCC1 (stereo not drawn)
786-0
  GI50: > 100 µM (inactive)
A498
  GI50: > 100 µM (inactive)
A549
  GI50: > 100 µM (inactive)
ACHN
  GI50: > 100 µM (inactive)
CAKI-1
  GI50: > 100 µM (inactive)
CCRF-CEM
  GI50: > 100 µM (inactive)
COLO 205
  GI50: > 100 µM (inactive)
DLD-1
  GI50: > 100 µM (inactive)
DMS-114
  GI50: > 100 µM (inactive)
DMS-273
  GI50: > 100 µM (inactive)
HCC 2998
  GI50: > 100 µM (inactive)
HCT-116
  GI50: > 100 µM (inactive)
HCT-15
  GI50: > 100 µM
HL-60
  GI50: 16.3 µM (inactive)
HOP-18
  GI50: > 100 µM (inactive)
HOP-62
  GI50: > 100 µM (inactive)
HOP-92
  GI50: > 100 µM (inactive)
HT-29
  GI50: > 100 µM (inactive)
IGROV-1
  GI50: > 100 µM (inactive)
K562
  GI50: 76.6 µM (inactive)
KM-20L2
  GI50: > 100 µM (inactive)
KM12
  GI50: 92.3 µM (inactive)
LXFL 529
  GI50: > 100 µM (inactive)
M19-MEL
  GI50: > 100 µM (inactive)
MOLT-4
  GI50: 81.8 µM (inactive)
NCI-H23
  GI50: > 10 µM (inactive)
NCI-H460
  GI50: > 100 µM (inactive)
OVCAR-3
  GI50: > 100 µM (inactive)
OVCAR-4
  GI50: > 10 µM (inactive)
OVCAR-8
  GI50: > 100 µM (inactive)
RPMI-8226
  GI50: 51.1 µM (inactive)
RXF 393
  GI50: 18.1 µM (inactive)
SF-295
  GI50: > 100 µM (inactive)
SF-539
  GI50: > 100 µM (inactive)
SK-MEL-28
  GI50: > 100 µM (inactive)
SK-MEL-2
  GI50: 35.4 µM (inactive)
SN12C
  GI50: > 100 µM (inactive)
SNB-19
  GI50: > 100 µM (inactive)
SNB-75
  GI50: > 100 µM (inactive)
SNB-78
  GI50: > 100 µM (inactive)
SR
  GI50: 60.5 µM (inactive)
SW-620
  GI50: > 100 µM (inactive)
U-251
  GI50: > 100 µM (inactive)
UACC-257
  GI50: > 10 µM (inactive)
UACC-62
  GI50: > 100 µM (inactive)
UO-31
  GI50: > 100 µM (inactive)
XF498
  GI50: > 100 µM (inactive)
